Biological target: Cannabinoid receptor 1 (Mus musculus, UniProt P47746)
Assay: Displacement of [3H]CP-55940 from CB1R in C57Bl/6Jhsd mouse cortex membrane incubated for 1 hr by liquid scintillation counter analysis

Sequence of Cannabinoid receptor 1 (P47746 whole entry): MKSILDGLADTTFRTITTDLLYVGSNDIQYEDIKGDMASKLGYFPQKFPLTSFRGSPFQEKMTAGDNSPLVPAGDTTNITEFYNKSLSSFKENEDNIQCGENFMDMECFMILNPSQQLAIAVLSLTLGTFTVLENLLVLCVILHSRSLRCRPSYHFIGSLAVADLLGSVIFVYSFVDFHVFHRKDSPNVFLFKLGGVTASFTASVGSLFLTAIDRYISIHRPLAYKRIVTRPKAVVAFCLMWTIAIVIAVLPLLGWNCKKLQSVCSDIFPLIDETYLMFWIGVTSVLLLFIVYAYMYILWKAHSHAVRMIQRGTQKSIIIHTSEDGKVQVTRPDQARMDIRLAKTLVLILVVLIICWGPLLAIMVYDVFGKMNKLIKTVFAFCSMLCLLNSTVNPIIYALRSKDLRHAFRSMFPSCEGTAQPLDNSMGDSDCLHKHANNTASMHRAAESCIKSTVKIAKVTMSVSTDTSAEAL

## CCOC(=O)N1CCC(N[C@H]2CCCOc3c2nn(-c2ccccc2Cl)c3-c2ccc(Cl)cc2)CC1
  Ki: 8.9 nM
